# Test results: US20240150293A1, “SPIROCYCLOHEXANE DERIVATIVES, PHARMACEUTICAL COMPOSITIONS CONTAINING THEM AND THEIR USES AS ANTI-APOPTOTIC INHIBITORS” (LES LABORATOIRES SERVIER, priority 2021, published 2024)
# Target: Mcl-1 protein (UniProtKB Q07820) (Homo sapiens (Human), UniProt Q07820)
# Assay: Inhibition of Mcl-1 by the fluorescence polarisation assay (Example A, Method A)
# Format: binding
# Conditions: fluorescence polarization assay
# Procedure, shortened: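 Protein (5 nM) and fluorescein-tagged peptide tracer (1 nM) incubated with 11-point compound series for 2 h at room temperature in HEPES/NaCl/Tween 20 buffer, pH 7.4, 5% DMSO. Displacement read as decrease in polarisation; IC50 fitted by 4-parameter logistic, converted to Ki (cKi or eKi).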
# Chain of Mcl-1 protein (Q07820 whole entry): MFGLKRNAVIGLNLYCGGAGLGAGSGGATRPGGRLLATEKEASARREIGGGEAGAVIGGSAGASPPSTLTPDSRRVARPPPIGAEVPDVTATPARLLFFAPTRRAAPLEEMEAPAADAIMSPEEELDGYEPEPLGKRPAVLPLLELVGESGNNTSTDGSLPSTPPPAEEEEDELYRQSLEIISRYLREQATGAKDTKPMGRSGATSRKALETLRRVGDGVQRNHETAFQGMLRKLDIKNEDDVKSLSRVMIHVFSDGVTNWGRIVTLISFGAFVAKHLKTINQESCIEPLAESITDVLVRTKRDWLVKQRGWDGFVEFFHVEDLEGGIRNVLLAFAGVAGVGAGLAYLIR
row,Ki [µM],Compound
1,0.299,"O=C(O)[C@]1(Nc2cccc(Cl)c2)CC[C@@]2(CC1)c1ccccc1CC2CCCSc1ccncc1 (stereo partly shown) [Example 399, (1r,4r)-4-(3-chloroanilino)-2′-{3-[(pyridin-4-yl)sulfanyl]propyl}-2′,3′-dihydrospiro[cyclohexane-1,1′-indene]-4-carboxylic acid]"
2,0.15,"CC(=O)c1ccc2c(c1)[C@]1(CC[C@@](Nc3cccc(Cl)c3)(C(=O)O)CC1)C(Br)=C2 [Example 132, (1s,4s)-6′-acetyl-2′-bromo-4-(3-chloroanilino)spiro[cyclohexane-1,1′-indene]-4-carboxylic acid]"
3,7.72,"Cc1noc(C)c1C1Cc2ccccc2C12CCC(Nc1cccc(Br)c1)(C(=O)O)CC2 (single isomer, unassigned) [Example 231, 4-(3-bromoanilino)-2′-(3,5-dimethyl-1,2-oxazol-4-yl)-2′,3′-dihydrospiro[cyclohexane-1,1′-indene]-4-carboxylic acid]"
4,1.14,"O=C(O)[C@]1(Nc2cccc(Cl)c2)CC[C@@]2(CC1)c1ccccc1CC2[C@H]1C[C@@H]1COc1cccnc1 (single isomer, unassigned) [Example 115, (1r,4r)-4-(3-chloroanilino)-2′-[(1R*,2S*)-2-{[(pyridin-3-yl)oxy]methyl}cyclopropyl]-2′,3′-dihydrospiro[cyclohexane-1,1′-indene]-4-carboxylic acid]"
5,0.184,"O=C(O)[C@]1(Nc2cccc(Cl)c2)CC[C@@]2(CC1)c1ccccc1CC2CCCOc1cccc2c1CCN2 (stereo partly shown) [Example 470, (1r,4r)-4-(3-chloroanilino)-2′-{3-[(2,3-dihydro-1H-indol-4-yl)oxy]propyl}-2′,3′-dihydrospiro[cyclohexane-1,1′-indene]-4-carboxylic acid]"
6,1.17,"CC[C@H](COc1ccccc1)C[C@H]1Cc2ccccc2[C@]12CC[C@@](Nc1cccc(Cl)c1)(C(=O)O)CC2 [Example 541, (1r,2′S,4S)-4-(3-chloroanilino)-2′-[(2S)-2-(phenoxymethyl)butyl]-2′,3′-dihydrospiro[cyclohexane-1,1′-indene]-4-carboxylic acid]"
7,3.77,"C=CCOC1Cc2ccccc2[C@]12CC[C@@](Nc1cccc(Cl)c1)(C(=O)O)CC2 (stereo partly shown) [Example 122, (1s,4s)-4-(3-chloroanilino)-2′-[(prop-2-en-1-yl)oxy]-2′,3′-dihydrospiro[cyclohexane-1,1′-indene]-4-carboxylic acid]"
8,0.522,"O=C(O)[C@]1(Nc2cccc(Cl)c2)CC[C@]2(CC1)C(COCCc1cccc(Cl)c1)=Cc1ccccc12 [Example 417, (1s,4s)-4-(3-chloroanilino)-2′-{[2-(3-chlorophenyl)ethoxy]methyl}spiro[cyclohexane-1,1′-indene]-4-carboxylic acid]"
9,63.3,"O=C(O)[C@]1(Nc2cccc(Br)c2)CC[C@@]2(CC1)C(CCCc1ccccc1)=Cc1ccccc12 [Example 149, (1s,4s)-4-(3-bromoanilino)-2′-(3-phenylpropyl)spiro[cyclohexane-1,1′-indene]-4-carboxylic acid]"
10,0.0822,"COc1ccc2c(c1)[C@]1(CC[C@@](Nc3cccc(Cl)c3)(C(=O)O)CC1)C(Br)=C2 [Example 129, (1s,4s)-2′-bromo-4-(3-chloroanilino)-6′-methoxyspiro[cyclohexane-1,1′-indene]-4-carboxylic acid]"

# Target: Cy5-labelled Mcl1 (amino acids 171-321) C286S protein (UniProtKB Q07820) (Homo sapiens (Human), UniProt Q07820, C286S)
# Sequence (Q07820 171-321 C286S): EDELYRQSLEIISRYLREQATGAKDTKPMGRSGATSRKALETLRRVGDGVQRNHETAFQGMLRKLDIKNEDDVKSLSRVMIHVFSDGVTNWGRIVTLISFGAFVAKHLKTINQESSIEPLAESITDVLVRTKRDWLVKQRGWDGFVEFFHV
# Assay: Inhibition of Mcl-1 by the fluorescence quenching assay (Example A, Method B)
# Format: binding
# Conditions: not given
# Text: Fluorescence quenching assay measures the change fluorescence intensity of C-terminally Cy5-labelled Mcl1 (amino acids 171-321) C286S protein (UniProtKB® primary accession number Q07820) having an amino acid sequence:
# which is linked at the C-terminus to the amino acid X which corresponds to a cysteine labelled on the sulfur with sulpho-Cyanine5 from Lumiprobe GmbH catalogue number 13380, upon binding of a C-terminally labelled peptide derived from PUMA (UniProtKB® primary accession number Q9BXH1) having an amino acid sequence:
# which is linked at the C-terminus to the amino acid X′, where X′ is cysteine labelled on the sulfur with TQ5WS from AAT Bioquest catalogue number 2079.
# The addition of a compound which binds competitively to the same site as the peptide will result in an increase in the fluorescence intensity of the protein due to displacement of the fluorescence quencher.
# An 11-point serial dilution of each compound was prepared in DMSO, the final buffer conditions were 10 mM 4-(2-hydroxyethyl)-1-piperazineethanesulfonic acid [HEPES], 150 mM NaCl, 0.05% Tween 20, pH 7.4 and 5% DMSO. The final protein concentration in the assay was 1 nM with the peptide present at 10, 20 or 400 nM. The experiments were incubated for 2 hours at room temperature before fluorescence intensity was measured on a Biotek SynergyNeo plate reader (Excitation 620 nm, emission 680 nm). The dose response curves were plotted with XL-Fit software using a 4-Parameter Logistic Model (Sigmoidal DoseResponse Model) and the inhibitory concentrations that gave a 50% increase in fluorescence intensity was determined (IC50). The Ki values were determined from the IC50 values according to Cer et al, Nucleic Acids Res, 2009, 37 (WebServer issue): W441-W445. Inhibition constants (Ki) are determined from complete binding inhibition curves (cKi) or from estimated from incomplete binding inhibition curves (eKi) in most cases due to low activity.
row,Ki [µM],Compound
1,0.0556,"C[C@@H](COc1ccnc2c1[C@H](C)CCC2)C[C@H]1Cc2cc3c(cc2[C@]12CC[C@@](Nc1cccc(Cl)c1)(C(=O)OCCCS(=O)(=O)O)CC2)OCO3 [Example 953, 3-({(1r,4S,6′S)-4-(3-chloroanilino)-6′-[(2R)-2-methyl-3-{[(5R)-5-methyl-5,6,7,8-tetrahydroquinolin-4-yl]oxy}propyl]-6′,7′-dihydro-2′H-spiro[cyclohexane-1,5′-indeno[5,6-d][1,3]dioxole]-4-carbonyl}oxy)propane-1-sulfonic acid]"
2,0.0653,"Cc1cc(C(C)O)cc2c1CC(C[C@@H](C)COc1ccnc3c1[C@H](C)CCC3)[C@]21CC[C@](Nc2cccc(Cl)c2)(C(=O)O)CC1 (stereo partly drawn) [Example 761, (1r,4R)-4-(3-chloroanilino)-6′-(1-hydroxyethyl)-4′-methyl-2′-[(2R)-2-methyl-3-{[(5R)-5-methyl-5,6,7,8-tetrahydroquinolin-4-yl]oxy}propyl]-2′,3′-dihydrospiro[cyclohexane-1,1′-indene]-4-carboxylic acid]"
3,0.0254,"CC[C@@H](COc1ccnc2ccsc12)C[C@@H]1Cc2ccccc2[C@]12CC[C@@](Nc1cccc(Cl)c1)(C(=O)O)CC2 [Example 539, (1r,2′R,4R)-4-(3-chloroanilino)-2′-[(2R)-2-{[(thieno[3,2-b]pyridin-7-yl)oxy]methyl}butyl]-2′,3′-dihydrospiro[cyclohexane-1,1′-indene]-4-carboxylic acid]"
4,0.0018,"O=C(O)[C@]1(Nc2cccc(Cl)c2)CC[C@@]2(CC1)c1ccccc1CC2CC(COCCN1CCOCC1)COc1ccnc2c1CCC2 (mixture of isomers) [Example 496, (1r,4r)-4-(3-chloroanilino)-2′-(2-{[(6,7-dihydro-5H-cyclopenta[b]pyridin-4-yl)oxy]methyl}-3-[2-(morpholin-4-yl)ethoxy]propyl)-2′,3′-dihydrospiro[cyclohexane-1,1′-indene]-4-carboxylic acid]"
5,0.126,"CC[C@H](COc1ccncc1)C[C@@H]1Cc2ccccc2[C@]12CC[C@@](Nc1cccc(Cl)c1)(C(=O)O)CC2 [Example 543, (1r,2′R,4R)-4-(3-chloroanilino)-2′-[(2S)-2-{[(pyridin-4-yl)oxy]methyl}butyl]-2′,3′-dihydrospiro[cyclohexane-1,1′-indene]-4-carboxylic acid]"
6,0.0741,"O=C(O)[C@]1(Nc2cccc(Cl)c2)CC[C@@]2(CC1)c1ccccc1CC2CC(CO)COc1ccnc2c1CCC2 (single isomer, unassigned) [Example 499, (1r,4r)-4-(3-chloroanilino)-2′-(2-{[(6,7-dihydro-5H-cyclopenta[b]pyridin-4-yl)oxy]methyl}-3-hydroxypropyl)-2′,3′-dihydrospiro[cyclohexane-1,1′-indene]-4-carboxylic acid]"
7,0.0426,"C[C@@H](COc1ccnc2c1CCC2(C)O)C[C@H]1Cc2ccccc2[C@]12CC[C@@](Nc1cccc(Cl)c1)(C(=O)O)CC2 (stereo partly drawn) [Example 618, (1r,2′S,4S)-4-(3-chloroanilino)-2′-{(2R)-3-[(7-hydroxy-7-methyl-6,7-dihydro-5H-cyclopenta[b]pyridin-4-yl)oxy]-2-methylpropyl}-2′,3′-dihydrospiro[cyclohexane-1,1′-indene]-4-carboxylic acid]"
8,0.00268,"CCc1cnccc1OC[C@H](C)C[C@H]1Cc2ccccc2[C@]12CC[C@@](Nc1cccc(Cl)c1)(C(=O)O)CC2 [Example 588, (1r,2′S,4S)-4-(3-chloroanilino)-2′-{(2R)-3-[(3-ethylpyridin-4-yl)oxy]-2-methylpropyl}-2′,3′-dihydrospiro[cyclohexane-1,1′-indene]-4-carboxylic acid]"
9,0.076,"Cc1ccc2[nH]ccc2c1OCCC[C@@H]1Cc2ccccc2[C@]12CC[C@@](Nc1cccc(Cl)c1)(C(=O)O)CC2 [Example 489, (1r,2′R,4R)-4-(3-chloroanilino)-2′-{3-[(5-methyl-1H-indol-4-yl)oxy]propyl}-2′,3′-dihydrospiro[cyclohexane-1,1′-indene]-4-carboxylic acid]"
10,0.0227,"O=C(O)[C@]1(Nc2cccc(Cl)c2)CC[C@@]2(CC1)c1ccccc1CC2CC(COc1ccnc2c1CCCC2)C(F)F (single isomer, unassigned) [Example 512, (1r,4r)-4-(3-chloroanilino)-2′-(3,3-difluoro-2-{[(5,6,7,8-tetrahydroquinolin-4-yl)oxy]methyl}propyl)-2′,3′-dihydrospiro[cyclohexane-1,1′-indene]-4-carboxylic acid]"
11,0.028,"C[C@@H](COc1ccnc2c1[C@H](C)CCC2)C[C@H]1Cc2cc3c(cc2[C@]12CC[C@@](Nc1cccc(Cl)c1)(C(=O)Oc1ccc4c(c1)CCC4)CC2)OCO3 [Example 937, 2,3-dihydro-1H-inden-5-yl (1r,4S,6′S)-4-(3-chloroanilino)-6′-[(2R)-2-methyl-3-{[(5R)-5-methyl-5,6,7,8-tetrahydroquinolin-4-yl]oxy}propyl]-6′,7′-dihydro-2′H-spiro[cyclohexane-1,5′-indeno[5,6-d][1,3]dioxole]-4-carboxylate]"

# Same assay, conditions: Ki determined from IC50
row,Ki [µM],Compound
1,0.503,"Cc1cccc(N[C@]2(C(=O)O)CC[C@@]3(CC2)C(Br)=Cc2ccccc23)c1 [Example 88, (1s,4s)-2′-bromo-4-(3-methylanilino)spiro[cyclohexane-1,1′-indene]-4-carboxylic acid]"
